For series [1], the system named is T3SS-mediated secretion of ExoS′-βLA fusion protein from P. aeruginosa strain MDM973. Nature of the series: microbe, parasite or virus in culture. The class given is cell-based, Pseudomonas aeruginosa.
The test system of series [2] is P. aeruginosa T3SS (exoT-luxCDABE reporter strain MDM852). The class given is cell-based, Pseudomonas aeruginosa. The following applies: both at 50 μM compound; for RLU-S (RLU Selectivity): Table 5; for RLU-S (RLU Selectivity) / RLU Selectivity: % inhibition of exoT-lux RLU/% inhibition of lac-lux RLU; for Serum Effect: % inhibition of exoT-lux RLU in the absence of serum/% inhibition in the presence of 10% fetal calf serum.

In another series the test system is HeLa cells. The following applies: ratio of HeLa CC50 vs ExoS′-βLA IC50.
Another series can be described thus: in vitro. The conditions noted are these: human.
For series [3], the system named is T3SS-mediated secretion of YopE-βLA fusion protein from Y. pestis strain JG153/pMM85. Put plainly: microbe, parasite or virus in culture. Type of series: cell-based. The following applies: Yersinia pestis, read-out: yopE-βLA IC50.
Series [4] relates to ExoU translocation from P. aeruginosa strain PAKΔSTYexoU into CHO cells. Nature of the series: Inhibition of P. aeruginosa ExoU-dependent CHO cell killing (LDH release). The conditions noted are these: ExoU-secreting P. aeruginosa, MOI 5.
Another series has as its system P. aeruginosa. Nature of the series: Minimum inhibitory concentration (broth microdilution). The following applies: Pseudomonas aeruginosa, read-out: MIC vs. P. aeruginosa. (In general: Broth dilution looks for growth in wells or tubes with falling amounts of substance.)
Setting [5] is: Pseudomonas aeruginosa, read-out: IC50 (μM) (ExoS′-βLA assay), Table 4.
Where [6] appears, read: Pseudomonas aeruginosa, read-out: ExoS′-βLA IC50, Table 5, P. aeruginosa strain MDM973.
The mark [7] stands for this setting: Table 4, read-out: IC50 (μM) (ExoS′-βLA assay).
Setting [8] is: Pseudomonas aeruginosa, read-out: ExoS′-βLA IC50, Table 3, secretion from P. aeruginosa strain MDM973 reduced by 50%.
The mark [9] stands for this setting: Pseudomonas aeruginosa, read-out: IC50 in the ExoS′-βLA secretion assay.
Setting [10] is: CC50 (cytotoxicity, HeLa), absence of serum.

Read-outs that look alike come from different tables or passages of the source.

For `CC(Oc1ccc(Cl)cc1Cl)C(=O)N(C)Cc1ccccc1` (racemic) [compound 6468028, N-benzyl-2-(2,4-dichlorophenoxy)-N-methylpropanamide], the IC50 in series [1] (setting [5]) was found to be 21 µM.

As for `Cc1nnc(-c2ccc(OCC(=O)N3CCc4ccccc43)cc2)o1` [F5054-0019, 1-(indolin-1-yl)-2-(4-(5-methyl-1,3,4-oxadiazol-2-yl)phenoxy)ethanone], the “RLU-S (RLU Selectivity)” value in series [2] turned out to be 10.8. The 50% inhibitory concentration (IC50) in series [1] (setting [6]) was determined as 22.3 µM.

For `CC(Oc1ccc(Cl)cc1Cl)C(=O)NC(C)C1CC2CCC1C2` (centres unmarked) [compound 7247834, N-(1-(bicyclo[2.2.1]heptan-2-yl)ethyl)-2-(2,4-dichlorophenoxy)propanamide], the “RLU-S (RLU Selectivity)” value in series [2] is reported as 5.6. For the same compound, the IC50 in series [1] (setting [6]) was determined as 16.7 µM.

Regarding `C[C@H](Oc1ccc(Cl)cc1Cl)C(=O)NCc1ccc2c(c1)OCO2` [MBX 1686, N-[3,4-(methylenedioxy)benzyl]-(S)-2-(2,4-dichlorophenoxy)propanamide], the “T3SS inhibitory activity (active/inactive)” value in series [1] was “inactive”. Also, the half-inhibitory concentration (IC50) in series [1] (setting [7]) and in series [1] (read-out: IC50 in the ExoS′-βLA secretion assay) was over 100 µM each time.

Regarding `Cc1ccc(NC(=O)/C=C/C(=O)OCC(F)(F)C(F)F)cc1` [Compound 5, (E)-2,2,3,3-tetrafluoropropyl 4-oxo-4-(p-tolylamino)but-2-enoate], in series [2], the “Serum Effect” value amounted to 2.6 and the “RLU Selectivity” value is on record as 4.5. Further, in series [1] (setting [8]), the IC50 was found to be 22 µM. The CC50/IC50 with HeLa cells amounted to 1.3. Further, the CC50 in the series “in vitro” (HeLa CC50) was found to be 28 µM.

As to `CC(C)(Oc1ccc(Cl)cc1Cl)C(=O)NCc1ccc2c(c1)OCO2` [MBX 1685, N-[3,4-(methylenedioxy)benzyl]-2-(2,4-dichlorophenoxy)-2-methylpropanamide], in series [1] (setting [7]), the IC50 was over 100 µM.

As for `CC(Oc1ccc(Cl)cc1Cl)C(=O)NCc1ccncc1` (racemic) [compound 6372013, 2-(2,4-dichlorophenoxy)-N-(4-pyridinylmethyl)propanamide], the IC50 in series [1] (setting [5]) stood at 59 µM.

`CCc1ccc2nc(N3C(=O)C(O)=C(C(=O)c4cccs4)C3c3ccc([N+](=O)[O-])cc3)sc2c1` (centres unmarked) [Compound 10, 1-(6-ethylbenzo[d]thiazol-2-yl)-3-hydroxy-5-(4-nitrophenyl)-4-(thiophene-2-carbonyl)-1H-pyrrol-2(5H)-one]: in series [2], the “Serum Effect” value is 1.8 and the “RLU Selectivity” value is 3.8. Also, the IC50 in series [1] (setting [8]) is 3 µM. Further, the 50% inhibitory concentration (IC50) in series [3] was determined as 4.1 µM. Also, in the series with HeLa cells, the CC50/IC50 is listed as 5.3. This compound also came in with a CC50 in the series “in vitro” (HeLa CC50) of 16 µM.

For `COc1ccc(CNC(=O)C(C)Oc2ccc(Cl)cc2Cl)cc1` (racemic) [compound 6375680, 2-(2,4-dichlorophenoxy)-N-(4-methoxybenzyl)propanamide], the IC50 in series [1] (setting [5]) came to 10 µM.

For the compound `Oc1ccc(O)c(Cc2nc3ccccc3[nH]2)c1` [compound 6430631, 2-((1H-benzo[d]imidazol-2-yl)methyl)benzene-1,4-diol], in series [2], the “RLU-S (RLU Selectivity)” value is on record as 4.2. Further, the half-inhibitory concentration (IC50) in series [1] (setting [6]) is 22.3 µM.

With `CC(Oc1ccccc1F)C(=O)NCc1ccc2c(c1)OCO2` (centres unmarked) [compound 7339628], the half-maximal inhibitory concentration (IC50) in series [1] (setting [7]) is over 100 µM.

On to `CN1CCN(C(=S)c2ccc(N(C)C)cc2)CC1` [Compound 11, (4-(dimethylamino)phenyl)(4-methylpiperazin-1-yl)methanethione], for which, in series [2], the “Serum Effect” value turned out to be 1 and the “RLU Selectivity” value is 22. Also, in series [1] (setting [8]), the concentration for half-maximal inhibition (IC50) was 19 µM. Besides, in series [3], the IC50 is 19 µM. The CC50/IC50 with HeLa cells worked out at 0.9. The CC50 in the series “in vitro” (HeLa CC50) was 18 µM.

As to `CC(Oc1ccc(Cl)cc1Cl)C(=O)NCc1ccco1` (racemic) [compound 5685325, 2-(2,4-dichlorophenoxy)-N-(2-furylmethyl)propanamide], the IC50 in series [1] (setting [5]) came out at 25 µM. Moreover, in series [4], the “rescue of CHO cells from ExoU cytotoxicity (in words)” value (from here on “rescue of CHO cells”) is “rescued CHO cells”.

As for `Cc1cc(Cl)ccc1OC(C)C(=O)NCc1ccc2c(c1)OCO2` (racemic) [compound 6116488, N-(1,3-benzodioxol-5-ylmethyl)-2-(4-chloro-2-methylphenoxy)propanamide], the IC50 in series [1] (setting [5]) was found to be 98 µM.

As to `COc1ccccc1CNC(=O)C(C)Oc1ccc(Cl)cc1Cl` (racemic) [compound 6374948, 2-(2,4-dichlorophenoxy)-N-(2-methoxybenzyl)propanamide], in series [1] (setting [5]), the IC50 came out at 12 µM.

In the case of `Cc1ccc(CNC(=O)C(C)Oc2ccc(Cl)cc2Cl)cc1` (racemic) [compound 6109233, 2-(2,4-dichlorophenoxy)-N-(4-methylbenzyl)propanamide], the half-inhibitory concentration (IC50) in series [1] (setting [5]) was 5 µM.

On to `CCN1CCOC(CC(=O)Nc2ccc(F)cc2)C1=O` (centres unmarked) [Compound 4, 2-(4-ethyl-3-oxomorpholin-2-yl)-N-(4-fluorophenyl)acetamide], for which the “Serum Effect” value in series [2] came out at 4.2. The “RLU Selectivity” value in series [2] is on record as 3.9. Further, the values for the IC50 in series [1] (setting [8]), in series [1] (setting [9]) and in series [3] were 13 µM, at most 25 µM and 6 µM, respectively. Also, the CC50/IC50 in the series with HeLa cells is 6.2. The CC50 in the series “in vitro” (setting [10]) is at least 100 µM; in “in vitro” (HeLa CC50) it was 100 µM. Also, the MIC with P. aeruginosa is over 100 µM. Further, the “rescue of CHO cells” value in series [4] is listed as “failed to inhibit T3SS-mediated translocation”.

With `C[C@@H](Oc1ccc(Cl)cc1Cl)C(=O)NCc1ccc2c(c1)OCO2` [MBX 1684, (R)-N-(benzo[d][1,3]dioxol-5-ylmethyl)-2-(2,4-dichlorophenoxy)propanamide], the “T3SS inhibitory activity (active/inactive)” value in series [1] (ExoS′-βLA reporter assay) is “active”. In addition, the 50% inhibitory concentration (IC50) in series [1] (setting [5]) is 6 µM; in series [1] (setting [9]), about 6 µM.

Turning to `Cc1ccc(N2C(=O)C3C(C2=O)C2(C)C=CC3(C)O2)c(C)c1` (centres unmarked) [Compound 8, 2-(2,4-dimethylphenyl)-4,7-dimethyl-3a,4,7,7a-tetrahydro-1H-4,7-epoxyisoindole-1,3(2H)-dione], the “Serum Effect” value in series [2] was found to be 3.1. In series [2], the “RLU Selectivity” value is 9.2. The half-inhibitory concentration (IC50) in series [1] (setting [8]) is 15 µM; in series [1] (setting [9]), at most 25 µM; in series [3], 103 µM. In addition, the CC50/IC50 in the series with HeLa cells is over 6.7. The CC50 is at least 100 µM in “in vitro” (setting [10]) and over 100 µM in the series “in vitro” (HeLa CC50). Also, in the series on P. aeruginosa, the minimal inhibitory concentration (MIC) was over 100 µM. In series [4], the “rescue of CHO cells” value is recorded as “failed to inhibit T3SS-mediated translocation”.

Consider `CC(Oc1ccc(Cl)cc1Cl)C(=O)NCc1ccc(F)cc1` (racemic) [compound 6380194, 2-(2,4-dichlorophenoxy)-N-(4-fluorobenzyl)propanamide], for which the IC50 in series [1] (setting [5]) was 9 µM. Also, in series [4], the “rescue of CHO cells” value is recorded as “rescued CHO cells”.

Consider `NC(=O)/C=C/C(=O)Nc1ccccc1Cl` [Compound 7, N1-(2-chlorophenyl)fumaramide], for which, in series [2], the “Serum Effect” value came to 1.5 and the “RLU Selectivity” value is 4.7. The IC50 in series [1] (setting [8]) amounted to 17 µM. In addition, in the series on HeLa cells, the CC50/IC50 is on record as 2.4. The CC50 in “in vitro” (HeLa CC50) was 40 µM.

As for `Cc1nn(C)cc1CNC(=O)C(C)Oc1ccc(Cl)cc1Cl` (racemic) [compound 8804126, 2-(2,4-dichlorophenoxy)-N-[(1,3-dimethyl-1H-pyrazol-4-yl)methyl]propanamide], the IC50 in series [1] (setting [5]) is 61 µM.

Regarding `NC(=O)/C=C/C(=O)Nc1ccccc1` [Compound 6, N1-phenylfumaramide], in series [2], the “Serum Effect” value is 1.5 and the “RLU Selectivity” value worked out at 3.6. In series [1] (setting [8]), the 50% inhibitory concentration (IC50) worked out at 19 µM. For the same compound, in the series on HeLa cells, the CC50/IC50 stood at 1.8. The compound further gave a CC50 in “in vitro” (HeLa CC50) of 35 µM.

As for `O=C(COc1ccc(Cl)cc1Cl)NCc1ccc2c(c1)OCO2` [MBX 1668, N-[3,4-(methylenedioxy)benzyl]-2-(2,4-dichlorophenoxy)acetamide], in series [1] (setting [7]), the 50% inhibitory concentration (IC50) was over 100 µM.

Consider pseudolipasin [reference compound], for which the “rescue of CHO cells” value in series [4] is “rescued CHO cells from ExoU toxicity with a similar potency”.

`CC(Oc1ccccc1Cl)C(=O)NCc1ccc2c(c1)OCO2` (racemic) [compound 9153915, N-(1,3-benzodioxol-5-ylmethyl)-2-(2-chlorophenoxy)propanamide]: in series [1] (setting [5]), the IC50 is 23 µM.

For `CC(Oc1ccc(Cl)cc1Cl)C(=O)NCc1ccc(Cl)c(Cl)c1` (racemic) [compound 7271715, N-(3,4-dichlorobenzyl)-2-(2,4-dichlorophenoxy)propanamide], the half-inhibitory concentration (IC50) in series [1] (setting [5]) is over 100 µM.

`CC(Oc1ccc(Cl)cc1Cl)C(=O)NCCC1=CCCCC1` (racemic) [compound 6467504, N-[2-(1-cyclohexen-1-yl)ethyl]-2-(2,4-dichlorophenoxy)propanamide]: the half-maximal inhibitory concentration (IC50) in series [1] (setting [5]) was over 100 µM.

Consider `O=C(CC1Sc2ncnn2C1=O)Nc1ccccc1` (centres unmarked) [Compound 2, 2-(6-oxo-5,6-dihydrothiazolo[3,2-b][1,2,4]triazol-5-yl)-N-phenylacetamide], for which, in series [2], the “Serum Effect” value is given as 2 and the “RLU Selectivity” value was 2.6. In addition, the half-inhibitory concentration (IC50) in series [1] (setting [8]) worked out at 12 µM. Also, the half-maximal inhibitory concentration (IC50) in series [3] amounted to 6.1 µM. The CC50/IC50 in the series with HeLa cells was 3.1. This compound returned a CC50 in “in vitro” (HeLa CC50) of 37 µM.

Usually IC50 stands for the midpoint of a concentration-inhibition curve. In general, MIC refers to the lowest concentration that inhibits growth of the organism.
